Row | SMILES | melting point
1 | COC(=O)c1cccc(-c2nc(C(N)=O)c3[nH]c(=O)n(-c4ccccc4OC)c3n2)c1 [Compound 61, Methyl 3-(6-carbamoyl-9-(2-methoxyphenyl)-8-oxo-8,9-dihydro-7H-purin-2-yl)benzoate] | 265 to 266 °C
2 | COc1ccc(-n2c(=O)[nH]c3c(C(N)=O)nc(-c4cccc(O)c4)nc32)c(F)c1 [Compound 155, 9-(2-Fluoro-4-methoxyphenyl)-2-(3-hydroxyphenyl)-8-oxo-8,9-dihydro-7H-purine-6-carboxamide] | > 260 °C
3 | COc1ccc(-n2c(=O)[nH]c3c(C(N)=O)nc(-c4cccc(O)c4)nc32)c(C)c1 [Compound 57, 2-(3-Hydroxyphenyl)-9-(4-methoxy-2-methylphenyl)-8-oxo-8,9-dihydro-7H-purine-6-carboxamide] | 355 to 357 °C
4 | CC(C)c1ccccc1-n1c(=O)[nH]c2c(C(N)=O)nc(-c3ccc4[nH]ccc4c3)nc21 [Compound 139, 2-(1H-Indol-5-yl)-9-(2-isopropylphenyl)-8-oxo-8,9-dihydro-7H-purine-6-carboxamide] | 310 °C (dec.)
5 | COc1ccccc1-n1c(=O)[nH]c2c(C(N)=O)nc(-c3ccc(C#N)cc3)nc21 [Compound 59, 2-(4-Cyano-phenyl)-9-(2-methoxy-phenyl)-8-oxo-8,9-dihydro-7H-purine-6-carboxamide] | 335 to 338 °C
6 | COc1ccccc1-n1cnc2c(C(N)=O)nc(-c3ccccc3O)nc21 [Compound 70, 2-(2-Hydroxyphenyl)-9-(2-methoxyphenyl)purine-6-carboxamide] | 278 to 280 °C
7 | NC(=O)c1nc(-c2cccc(O)c2)nc2c1[nH]c(=O)n2[C@@H]1CCOC1 [Compound 162, (R)-2-(3-Hydroxyphenyl)-8-oxo-9-(tetrahydrofuran-3-yl)-8,9-dihydro-7H-purine-6-carboxamide] | 353 to 355 °C
8 | NC(=O)c1nc(-c2cccc(O)c2)nc2c1[nH]c(=O)n2-c1ccccc1C1CCCCC1 [Compound 132, 9-(2-Cyclohexylphenyl)-2-(3-hydroxyphenyl)-8-oxo-8,9-dihydro-7H-purine-6-carboxamide] | > 270 °C
9 | COc1ccccc1-n1c(=O)[nH]c2c(C(N)=O)nc(NC[C@H]3CCCN3)nc21 [Compound 113, (R)-9-(2-Methoxyphenyl)-8-oxo-2-(pyrrolidin-2-ylmethylamino)-8,9-dihydro-7H-purine-6-carboxamide] | 155 to 157 °C
10 | NC(=O)c1nc(-c2cnccc2Cl)nc2c1[nH]c(=O)n2-c1ccccc1C(F)(F)F [Compound 109, 2-(4-Chloropyridin-3-yl)-8-oxo-9-(2-(trifluoromethyl)phenyl)-8,9-dihydro-7H-purine-6-carboxamide] | 244 to 248 °C (dec.)
11 | NC(=O)c1nc(-c2ccc3nc[nH]c3c2)nc2c1[nH]c(=O)n2C1CCCCC1 [Compound 156, 2-(1H-benzo[d]imidazol-6-yl)-9-cyclohexyl-8-oxo-8,9-dihydro-7H-purine-6-carboxamide] | 280 °C (dec.)
12 | COc1ccccc1-n1c(=O)[nH]c2c(C(N)=O)nc(N[C@H]3CC[C@@H](O)CC3)nc21 [Compound 110, 2-(cis-4-Hydroxycyclohexylamino)-9-(2-methoxyphenyl)-8-oxo-8,9-dihydro-7H-purine-6-carboxamide] | 295 to 297 °C
13 | NC(=O)c1nc(-c2cccc(O)c2)nc2c1[nH]c(=O)n2-c1cccc2c1CCCC2 [Compound 145, 2-(3-Hydroxyphenyl)-8-oxo-9-(5,6,7,8-tetrahydronaphthalen-1-yl)-8,9-dihydro-7H-purine-6-carboxamide] | > 250 °C
14 | CC(C)c1ccccc1-n1c(=O)[nH]c2c(C(N)=O)nc(-c3ccc(-n4ccnc4)cc3)nc21 [Compound 131, 2-(4-(1H-Imidazol-1-yl)phenyl)-9-(2-isopropylphenyl)-8-oxo-8,9-dihydro-7H-purine-6-carboxamide] | 232 °C
15 | NC(=O)c1nc(-c2cccc(O)c2)nc2c1[nH]c(=O)n2C1CCOCC1 [Compound 151, 2-(3-Hydroxyphenyl)-8-oxo-9-(tetrahydro-2H-pyran-4-yl)-8,9-dihydro-7H-purine-6-carboxamide] | 361 to 363 °C
16 | COc1ccccc1-n1c(=O)[nH]c2c(C(N)=O)nc(N[C@@H]3CCNC3)nc21 [Compound 105, (R)-9-(2-Methoxyphenyl)-8-oxo-2-(pyrrolidin-3-ylamino)-8,9-dihydro-7H-purine-6-carboxamide] | > 400 °C
17 | COc1ccccc1-n1c(=O)[nH]c2c(C(N)=O)nc(N[C@H]3CC[C@H](O)CC3)nc21 [Compound 108, 2-(trans-4-Hydroxycyclohexylamino)-9-(2-methoxyphenyl)-8-oxo-8,9-dihydro-7H-purine-6-carboxamide] | 165 to 167 °C
18 | NC(=O)c1nc(-c2ccc(-c3nc[nH]n3)cc2)nc2c1[nH]c(=O)n2C1CCCCC1 [Compound 146, 2-(4-(1H-1,2,4-Triazol-3-yl)phenyl)-9-cyclohexyl-8-oxo-8,9-dihydro-7H-purine-6-carboxamide] | 375 °C (dec.)

Row | SMILES | melting point
19 | NC(=O)c1nc(-c2cccc(O)c2)nc2c1[nH]c(=O)n2CC1CCCCC1 [Compound 140, 9-(Cyclohexylmethyl)-2-(3-hydroxyphenyl)-8-oxo-8,9-dihydro-7H-purine-6-carboxamide] | 368 to 370 °C
20 | CO[C@H]1CC[C@@H](n2c(=O)[nH]c3c(C(N)=O)nc(-c4cccc(O)c4)nc32)CC1 [Compound 144, 9-(cis-4-Methoxycyclohexyl)-2-(3-hydroxyphenyl)-8-oxo-8,9-dihydro-7H-purine-6-carboxamide] | 345 to 347 °C
21 | CC(C)c1ccccc1-n1c(=O)[nH]c2c(C(N)=O)nc(-c3ccc4nc[nH]c4c3)nc21 [Compound 127, 2-(1H-Benzo[d]imidazol-6-yl)-9-(2-isopropylphenyl)-8-oxo-8,9-dihydro-7H-purine-6-carboxamide] | 275 °C (dec.)
22 | COc1ccc(F)c(-n2c(=O)[nH]c3c(C(N)=O)nc(-c4cccc(O)c4)nc32)c1 [Compound 149, 9-(2-Fluoro-5-methoxyphenyl)-2-(3-hydroxyphenyl)-8-oxo-8,9-dihydro-7H-purine-6-carboxamide] | > 260 °C
23 | NC(=O)c1nc(-c2cccc(O)c2)nc2c1[nH]c(=O)n2-c1cccc2[nH]ccc12 [Compound 147, 2-(3-Hydroxyphenyl)-9-(1H-indol-4-yl)-8-oxo-8,9-dihydro-7H-purine-6-carboxamide] | > 260 °C
24 | COc1ccccc1-n1c(=O)[nH]c2c(C(N)=O)nc(Nc3ccccc3CO)nc21 [Compound 124, 2-(2-(Hydroxymethyl)phenylamino)-9-(2-methoxyphenyl)-8-oxo-8,9-dihydro-7H-purine-6-carboxamide] | 159 to 162 °C
25 | NC(=O)c1nc(-c2cccc(O)c2)nc2c1[nH]c(=O)n2-c1ccccc1Oc1ccccc1 [Compound 126, 2-(3-Hydroxyphenyl)-8-oxo-9-(2-phenoxyphenyl)-8,9-dihydro-7H-purine-6-carboxamide] | 329 to 331 °C
26 | CC(C)(C)c1ccccc1-n1c(=O)[nH]c2c(C(N)=O)nc(-c3cccc(O)c3)nc21 [Compound 125, 9-(2-tert-Butylphenyl)-2-(3-hydroxyphenyl)-8-oxo-8,9-dihydro-7H-purine-6-carboxamide] | 294 to 297 °C
27 | COc1ccccc1-n1c(=O)[nH]c2c(C(N)=O)nc(N[C@H]3CCNC3)nc21 [Compound 106, (S)-9-(2-Methoxyphenyl)-8-oxo-2-(pyrrolidin-3-ylamino)-8,9-dihydro-7H-purine-6-carboxamide] | > 400 °C
28 | COc1ccccc1-n1c(=O)[nH]c2c(C(N)=O)nc(-n3cnc4ccccc43)nc21 [Compound 134, 2-(1H-Benzo[d]imidazol-1-yl)-9-(2-methoxyphenyl)-8-oxo-8,9-dihydro-7H-purine-6-carboxamide] | 318 to 319 °C
29 | CC(C)c1ccccc1-n1c(=O)[nH]c2c(C(N)=O)nc(-c3ccc(-c4nc[nH]n4)cc3)nc21 [Compound 121, 2-(4-(1H-1,2,4-Triazol-3-yl)phenyl)-9-(2-isopropylphenyl)-8-oxo-8,9-dihydro-7H-purine-6-carboxamide] | 368 °C
30 | CO[C@H]1CC[C@H](n2c(=O)[nH]c3c(C(N)=O)nc(-c4cccc(O)c4)nc32)CC1 [Compound 143, 9-(trans-4-Methoxycyclohexyl)-2-(3-hydroxyphenyl)-8-oxo-8,9-dihydro-7H-purine-6-carboxamide] | 355 to 357 °C
31 | NC(=O)c1nc(-c2cnc3nc[nH]c3c2)nc2c1[nH]c(=O)n2-c1ccccc1C(F)(F)F [Compound 137, 2-(1H-Imidazo[4,5-b]pyridin-6-yl)-8-oxo-9-(2-(trifluoromethyl)phenyl)-8,9-dihydro-7H-purine-6-carboxamide] | 320 °C
32 | COc1ccccc1-n1c(=O)[nH]c2c(C(N)=O)nc(Nc3cccc(O)c3)nc21 [Compound 45, 2-(3-Hydroxyphenylamino)-9-(2-methoxyphenyl)-8-oxo-8,9-dihydro-7H-purine-6-carboxamide] | 190 to 191 °C
33 | CO[C@H]1CC[C@@H](n2c(=O)[nH]c3c(C(N)=O)nc(-c4cnc5nc[nH]c5c4)nc32)CC1 [Compound 168, 2-(1H-Imidazo[4,5-b]pyridin-6-yl)-9-(cis-4-methoxycyclohexyl)-8-oxo-8,9-dihydro-7H-purine-6-carboxamide] | 360 °C (dec.)
34 | COc1ccccc1-n1c(=O)[nH]c2c(C(N)=O)nc(Nc3ccccc3O)nc21 [Compound 56, 2-(2-Hydroxyphenylamino)-9-(2-methoxyphenyl)-8-oxo-8,9-dihydro-7H-purine-6-carboxamide] | 314 to 315 °C
35 | COC[C@H]1CC[C@@H](n2c(=O)[nH]c3c(C(N)=O)nc(-c4cccc(O)c4)nc32)CC1 [Compound 159, 2-(3-Hydroxyphenyl)-9-(cis-4-(methoxymethyl)cyclohexyl)-8-oxo-8,9-dihydro-7H-purine-6-carboxamide] | 324 to 326 °C
36 | NC(=O)c1nc(-c2ccc(O)nc2)nc2c1[nH]c(=O)n2-c1ccccc1C(F)(F)F [Compound 100, 2-(6-Hydroxypyridin-3-yl)-8-oxo-9-(2-(trifluoromethyl)phenyl)-8,9-dihydro-7H-purine-6-carboxamide] | 348 to 352 °C (dec.)
